Results on 8 molecules are retold here after PMC6152231, “Anti-Inflammatory Triterpene Glycosides from the Roots of Ilex dunniana Levl” (Molecules : A Journal of Synthetic Chemistry and Natural …, 2017).

One series has as its system BV2 microglial cells. Nature of the series: cytotoxicity, MTT assay. The note with it: for Cell Viability: 24 h, BV2 microglial cells, n = 3, in % (unit assumed). It counts as cell-based, mouse. The protocol: Cell viabilities were measured using the MTT assay. Briefly, BV2 microglial cells were seeded in 96-well plates at concentrations of 1 × 10^5 cells per well. After incubation for 2 h, the cells were incubated with compounds for 24 h and then washed with PBS three times. Following the washing step, 200 μL of RPMI 1640 medium containing 0.5 mg/mL MTT were added to each well, the cells were then incubated at 37 °C for another 4 h. Finally, the culture medium was removed, and the formazan crystal was dissolved by adding 150 μL of DMSO. Absorbances at 570 nm were measured using a microplate reader.

Series [1] deals with LPS-induced NO production in mouse BV2 microglial cells. Nature of the series: inhibition of LPS-induced NO production (Griess). It counts as cell-based. To be noted: BV-2, LPS 1 μg/mL, 24 h, n = 3, read-out: IC50 against LPS-induced NO production. The protocol: BV2 microglial cells were maintained in RPMI1640 medium at 37 °C in 5% CO2. The cells were placed in 48-well plates and preincubated for 24 h, treated with tested triterpene glycosides dissolved in DMSO at various final concentrations (5.0, 10.0, 20.0, 40.0, 80.0 μM) in triplicate for 1 h, and continuously incubated with LPS (1 μg/mL) for 24 h. Dexamethasone (10^−6 M) was used as the positive control. From each well, the supernatants (100 μL) were mixed with an equal amount of Griess reagent at room temperature for 20 min. The concentration of NO2^− was measured for the amount of NO by a microplate reader at 570 nm, using sodium nitrite as the standard to calculate the concentration of the nitrite.

Series [2] relates to ear edema induced by croton oil in mice. Nature of the series: croton oil-induced ear edema in mice. To be noted: ICR male mice, dose 1.0 mg/kg, positive control. It counts as in vivo.
Description: On the basis of the inhibition of croton oil-induced ear edema in mice, the topical anti-inflammatory activity of the test compounds was evaluated. Animal experiments were performed in accordance to the Institutional Guidelines for Animal Care and Use of the Chinese Academy of Medical Sciences and Peking Union Medical College. The protocol was approved by the Committee on the Ethics of Animal Experiments of the Chinese Academy of Medical Sciences and Peking Union Medical College (permit pumber: 002973).The croton oil (Croton tiglium L., seed oil) was purchased from Sigma-Aldrich (St. Louis, MO, USA). In ICR male mice (18–20 g, n = 10 per group), croton oil (0.4 mg) was mixed with acetone (1 mL) to be applied to the left ear (10 μL each side) topically to induce ear edema. The animals were administered with candidate extracts (50 mg/kg) for 1 h, followed by treatment with croton oil for 4 h. […] Based on the weight difference between two plugs (8 mm diameter) of the treated (left) and untreated (right) ears, the edematous response was measured. The percentage reduction in edema in treated mice compared with control mice is calculated for the expression of anti-inflammatory activity.

On to `C[C@H]1CC[C@]2(C(=O)O[C@@H]3O[C@H](CO)[C@@H](O)[C@H](O)[C@H]3O)CC[C@]3(C)C(=CCC4[C@@]5(C)CC[C@H](O[C@@H]6OC[C@@H](O)[C@H](O)[C@H]6OS(=O)(=O)O)C(C)(C)C5CC[C@]43C)C2[C@]1(C)O` (stereo partly drawn) [Compound 5, ilexpublesnin I], for which the “Cell Viability” value in the series on BV2 microglial cells (5.0 μM) is reported as 98.21 ± 1.93; with BV2 microglial cells (10.0 μM), 99.33 ± 1.54; in the series with BV2 microglial cells (20.0 μM) it was 99.32 ± 1.32; in the series with BV2 microglial cells (40.0 μM), 99.21 ± 1.66; in the series on BV2 microglial cells (80.0 μM), 99.13 ± 1.28. In addition, the 50% inhibitory concentration (IC50) in series [1] was determined as 50.7 ± 3.25 µM.

`C[C@@H]1CC[C@]2(C(=O)O[C@@H]3O[C@H](CO)[C@@H](O)[C@H](O)[C@H]3O)CC[C@]3(C)C(=CCC4[C@@]5(C)CC[C@H](OS(=O)(=O)[O-])[C@](C)(CO)C5CC[C@]43C)[C@@H]2[C@]1(C)O.[Na+]` (stereo partly drawn) [Compound 6, ilexoside XXXV]: the “Cell Viability” value with BV2 microglial cells (5.0 μM) was found to be 102.21 ± 1.03; with BV2 microglial cells (10.0 μM), 102.28 ± 1.56; in the series with BV2 microglial cells (20.0 μM), 103.35 ± 1.58; in the series on BV2 microglial cells (40.0 μM), 103.26 ± 1.28; with BV2 microglial cells (80.0 μM) it was 103.22 ± 1.89. The IC50 in series [1] was found to be 22.3 ± 2.23 µM.

As for `C[C@@H]1CC[C@]2(C(=O)O[C@@H]3O[C@H](CO)[C@@H](O)[C@H](O)[C@H]3O)CC[C@]3(C)C(=CCC4[C@@]5(C)CC[C@H](O[C@@H]6O[C@H](CO)[C@@H](O)[C@H](O)[C@H]6O[C@@H]6O[C@H](CO)[C@@H](O[C@@H]7O[C@H](CO)[C@@H](O)[C@H](O)[C@H]7O)[C@H](O)[C@H]6O)C(C)(C)C5CC[C@]43C)[C@@H]2[C@]1(C)O` (stereo partly drawn) [Compound 3, hylonoside II], the “Cell Viability” value in the series on BV2 microglial cells (5.0 μM) is 91.74 ± 1.11; with BV2 microglial cells (10.0 μM), 90.28 ± 1.82; in the series on BV2 microglial cells (20.0 μM) it was 89.35 ± 1.35; in the series on BV2 microglial cells (40.0 μM), 88.62 ± 1.21; with BV2 microglial cells (80.0 μM), 88.50 ± 1.32. Moreover, the “cytotoxic activity against microglial cell, in words” value in the series on BV2 microglial cells (BV2 microglial cells in vitro) was “showed cytotoxic activity”. Also, the 50% inhibitory concentration (IC50) in series [1] stood at 9.7 ± 0.86 µM.

Consider `CCCCOC(=O)C1OC(OC2CCC3(C)C(CCC4(C)C3CC=C3C5C(C(=O)OC6OC(CO)C(O)C(O)C6O)(CCC(C)C5(C)O)CCC34C)C2(C)C)C(O)C(O)C1O` [Compound 1, 3β-(6-O-n-butyl-D-glucuronopyranosyl)-19α-hydroxy-urs-12-en-28-oic acid 28-O-β-D-glucopyranoside], for which the “Cell Viability” value in the series with BV2 microglial cells (5.0 μM) came out at 99.74 ± 1.21; with BV2 microglial cells (10.0 μM), 99.28 ± 1.32; in the series on BV2 microglial cells (20.0 μM) it was 99.35 ± 1.26; in the series on BV2 microglial cells (40.0 μM), 99.62 ± 1.89; with BV2 microglial cells (80.0 μM), 99.70 ± 1.36. For the same molecule, the IC50 in series [1] worked out at 11.6 ± 0.89 µM.

For the molecule `CCCCOC(=O)C1OC(OC2CCC3(C)C(CCC4(C)C3CC=C3C5C(C(=O)OC6OC(CO)C(O)C(O)C6O)(CCC(C)C5(C)O)CCC34C)C2(C)C)C(O)C(OS(=O)(=O)O)C1O` [Compound 2, 3β-(3-O-sulphonyl-6-O-n-butyl-D-glucuronopyranosyl)-19α-hydroxy-urs-12-en-28-oic acid 28-O-β-D-glucopyranoside], the “Cell Viability” value was 98.32 ± 2.05 in the series on BV2 microglial cells (5.0 μM); 98.25 ± 1.87 in the series with BV2 microglial cells (10.0 μM); 98.16 ± 1.25 in the series with BV2 microglial cells (20.0 μM); 98.56 ± 1.37 in the series with BV2 microglial cells (40.0 μM); 98.26 ± 1.88 with BV2 microglial cells (80.0 μM). Further, the IC50 in series [1] is 12.3 ± 1.21 µM.

In the case of `C=C1CC[C@]2(C(=O)O[C@@H]3O[C@H](CO)[C@@H](O)[C@H](O)[C@H]3O[C@@H]3O[C@@H](C)[C@H](O)[C@@H](O)[C@H]3O)CC[C@]3(C)C(=CC[C@@H]4[C@@]5(C)CC[C@H](O[C@@H]6OC[C@H](O)[C@H](O[C@@H]7O[C@H](CO)[C@@H](O)[C@H](O)[C@H]7O[C@@H]7O[C@H](CO)[C@@H](O)[C@H](O)[C@H]7O)[C@H]6O[C@@H]6O[C@@H](C)[C@H](O)[C@@H](O)[C@H]6O)C(C)(C)[C@@H]5CC[C@]43C)[C@@H]2[C@]1(C)O` [Compound 7, ilekudinoside F], the “Cell Viability” value is recorded as 101.55 ± 1.42 with BV2 microglial cells (5.0 μM); 101.68 ± 1.36 with BV2 microglial cells (10.0 μM); 101.76 ± 1.47 in the series with BV2 microglial cells (20.0 μM); 101.38 ± 1.58 in the series with BV2 microglial cells (40.0 μM); 101.68 ± 1.38 with BV2 microglial cells (80.0 μM). Moreover, in series [1], the IC50 came to 55.2 ± 3.26 µM.

Regarding `C[C@@H]1C[C@H]2[C@@H]3CCC4=CC(=O)C=C[C@]4(C)[C@@]3(F)[C@@H](O)C[C@]2(C)[C@@]1(O)C(=O)CO` [Dexamethasone, reference compound], the “Cell Viability” value in the series with BV2 microglial cells (5.0 μM) is on record as 101.02 ± 1.01; in the series with BV2 microglial cells (10.0 μM) it was 99.98 ± 1.32; in the series with BV2 microglial cells (20.0 μM) it was 100.25 ± 1.67; with BV2 microglial cells (40.0 μM) it was 101.37 ± 1.83; in the series with BV2 microglial cells (80.0 μM), 99.78 ± 1.63. Further, the “Edema Degree” value in series [2] came to 5.80 ± 0.90 mg. Further, the “Inhibitation Rate” value in series [2] (ear edema vs control group) came to 71.0%. Further, the IC50 in series [1] is 0.03 µM.

Turning to `C[C@H]1CC[C@]2(C(=O)O[C@@H]3O[C@H](CO)[C@@H](O)[C@H](O)[C@H]3O)CC[C@]3(C)C(=CCC4[C@@]5(C)CC[C@H](O[C@@H]6OC[C@H](O)[C@H](OS(=O)(=O)O)[C@H]6O)C(C)(C)C5CC[C@]43C)C2[C@]1(C)O` (stereo partly drawn) [Compound 4, ilexpublesnin H], the “Cell Viability” value with BV2 microglial cells (5.0 μM) was 99.36 ± 1.31; in the series with BV2 microglial cells (10.0 μM), 99.37 ± 1.21; in the series with BV2 microglial cells (20.0 μM), 99.67 ± 1.32; in the series on BV2 microglial cells (40.0 μM), 99.57 ± 1.53; with BV2 microglial cells (80.0 μM) it was 99.33 ± 1.30. For the same molecule, the IC50 in series [1] was 33.5 ± 2.11 µM.
